Values quoted from earlier work in US9856304B2, “Peptide and application thereof” (Saitama Medical University, priority 2013, dated 2018).

Test system: pancreatic β cells
Conditions: as described in Patent Document 1; cited from earlier work

Row | Substance | activity for promoting increase in pancreatic β cells
1 | B: 19 amino acid fragment of human TM4SF20, Position 78 to 96, from Patent Document 1 (CNNRTGMFLSSLFSVITVI; listed as Homo sapiens) | not as high as expected
2 | C: 19 amino acid fragment of human TM4SF20, Position 161 to 179, from Patent Document 1 (TSNDTMASGWRASSFHFDS; listed as Homo sapiens) | not as high as expected
3 | Peptide A: 19 amino acid fragment of human TM4SF20, Position 98 to 116, from Patent Document 1 (ALYCMLISIQALLKGPLMC; listed as Homo sapiens) | not as high as expected
